According to publication PMC12004451, “Characterization of the Two-Domain Peptide Binding Mechanism of the Human CGRP Receptor for CGRP and the Ultrahigh Affinity ssCGRP Variant” (Biochemistry, 2025):
“And” between values parts separate entries of the source, which are not always exact repeats. Identical values can stand only once. Like-named read-outs stand apart in the source and are kept apart here. Bridge positions count the residues as written; N and C are the ends. Ends that are not written are not given here. Peptide text beside a SMILES is read from it. * marks the point of attachment. 5TAMRA = CN(C)c1ccc2c(c1)Oc1cc(N(C)C)ccc1C21OC(=O)c2cc(C(=O)*)ccc21

Legend:
[1] = target: T1, CGRP receptor (Nluc-CLR:RAMP1) (Homo sapiens, UniProt O60894+Q16602); experiment: nanoBRET association kinetics of TAMRA probes; format: binding
T1 construct: N-terminally Nanoluciferase (NLuc)-tagged CLR (pcDNA3.1(+)sec/NanoLuc-GSGIS-CLR.23-461); Wild-type CLR and RAMP expression plasmids were obtained from cDNA.org; sec (vector secretion signal before NanoLuc) (N); expressed in transfected cells; host or cells: COS-7 cells, membrane preparation
Description: After 2 days, the cells were washed with PBS and harvested with ice-cold PBS + 5 mM EDTA. The cells were pelleted in a centrifuge at 1000g for 5 min at 4 °C and resuspended in a hypotonic buffer (25 mM NaHEPES pH 7.5, 2 mM MgCl2, 1 mM EDTA, and 1× EDTA-free PIERCE protease inhibitor tablet). After resuspension, cells were homogenized with an Ultra Turrax for 30 s at 10,000 rpm followed by a 10 min incubation. Cell debris was pelleted at 800g for 10 min and the supernatant was transferred to ultracentrifuge tubes and centrifuged at 100,000g for 1 h. Membranes were resuspended in a wash buffer (25 mM NaHEPES pH 7.5, 250 mM NaCl, 2 mM MgCl2, 1 mM EDTA, and 1× protease inhibitor tablet). The homogenization and ultracentrifugation were repeated once more and the membranes were resuspended in storage buffer (25 mM NaHEPES pH 7.5, 25 mM NaCl, 2 mM MgCl2, 10% v/v glycerol, and 1× protease inhibitor tablet). The resuspended membranes were homogenized, aliquoted, and flash frozen in liquid nitrogen for storage at -80 °C. Total protein was quantitated using the DC protein assay (BioRad) per the manufacturer's instructions. The concentration of NLuc-CLR was determined by comparing the membrane prep luminescence to a standard curve using purified NLuc enzyme (Promega; […]). […] Costar 3912). […] The observed association rates (kobs) were plotted against probe concentration and the data was analyzed by linear regression. The kon and koff were obtained as the slope and y-intercept, respectively.

[2] = target: T1, CGRP receptor (Nluc-CLR:RAMP1); experiment: nanoBRET equilibrium competition binding, Nluc-CLR:RAMP1 membranes; details: room temperature, Cheng-Prusoff, mean ± SEM, n=3
Description: After 2 days, the cells were washed with PBS and harvested with ice-cold PBS + 5 mM EDTA. The cells were pelleted in a centrifuge at 1000g for 5 min at 4 °C and resuspended in a hypotonic buffer (25 mM NaHEPES pH 7.5, 2 mM MgCl2, 1 mM EDTA, and 1× EDTA-free PIERCE protease inhibitor tablet). After resuspension, cells were homogenized with an Ultra Turrax for 30 s at 10,000 rpm followed by a 10 min incubation. Cell debris was pelleted at 800g for 10 min and the supernatant was transferred to ultracentrifuge tubes and centrifuged at 100,000g for 1 h. Membranes were resuspended in a wash buffer (25 mM NaHEPES pH 7.5, 250 mM NaCl, 2 mM MgCl2, 1 mM EDTA, and 1× protease inhibitor tablet). The homogenization and ultracentrifugation were repeated once more and the membranes were resuspended in storage buffer (25 mM NaHEPES pH 7.5, 25 mM NaCl, 2 mM MgCl2, 10% v/v glycerol, and 1× protease inhibitor tablet). The resuspended membranes were homogenized, aliquoted, and flash frozen in liquid nitrogen for storage at -80 °C. Total protein was quantitated using the DC protein assay (BioRad) per the manufacturer's instructions. The concentration of NLuc-CLR was determined by comparing the membrane prep luminescence to a standard curve using purified NLuc enzyme (Promega; […]). […] The Cheng-Prusoff correction[30] was used to calculate the Ki from the IC50.

[3] = target: T1, CGRP receptor (Nluc-CLR:RAMP1); experiment: nanoBRET competition association kinetics (Motulsky-Mahan); format: binding; details: for Kd: mean ± SEM, n=3, read-out: Kd calc (koff/kon)
Description: Membrane preparation was performed as previously described.[29] COS-7 cells in ten […] plastic culture dishes (Corning; 430599) were transiently transfected with 2 μg NLuc-CLR, 2 μg RAMP1, and 46 μg empty pcDNA3.1(+) expression plasmids/dish with 75 μg Polyethylenimine (PEI)/dish. After 2 days, the cells were washed with PBS and harvested with ice-cold PBS + 5 mM EDTA. The cells were pelleted in a centrifuge at 1000g for 5 min at 4 °C and resuspended in a hypotonic buffer (25 mM NaHEPES pH 7.5, 2 mM MgCl2, 1 mM EDTA, and 1× EDTA-free PIERCE protease inhibitor tablet). After resuspension, cells were homogenized with an Ultra Turrax for 30 s at 10,000 rpm followed by a 10 min incubation. Cell debris was pelleted at 800g for 10 min and the supernatant was transferred to ultracentrifuge tubes and centrifuged at 100,000g for 1 h. Membranes were resuspended in a wash buffer (25 mM NaHEPES pH 7.5, 250 mM NaCl, 2 mM MgCl2, 1 mM EDTA, and 1× protease inhibitor tablet). The homogenization and ultracentrifugation were repeated once more and the membranes were resuspended in storage buffer (25 mM NaHEPES pH 7.5, 25 mM NaCl, 2 mM MgCl2, 10% v/v glycerol, and 1× protease inhibitor tablet). The resuspended membranes were homogenized, aliquoted, and flash frozen in liquid nitrogen for storage at −80 °C. Total protein was quantitated using the DC protein assay (BioRad) per the manufacturer’s instructions. The concentration of NLuc-CLR was determined by comparing the membrane prep luminescence to a standard curve using purified NLuc enzyme (Promega; G9711). The total protein concentration was 0.91 mg/mL and the NLuc-CLR was 7.35 nM.
Emission at 460 and 610 nm were measured every 16 s for 45 min with the PolarSTAR Omega plate reader mixing 300 rpm for 1 s before each cycle. The curves were fit using GraphPad Prism to the Motulsky-Mahan competition kinetics equation[31] modified to account for the signal decay component as previously described[32] to determine the kon and koff of the competitor. The Kd (koff/kon), half-life (ln 2/koff), and residence time (1/koff) values were calculated.

[4] = competition against 10 nM CGRP(27-37)*-TAMRA probe, 2 h, read-out: Ki

Compound | kon ([1]; association kinetics, 25 °C, kobs vs probe concentration, slope of linear regression, fit of first 10 min (full 1 h 15 min for ssCGRP(8-37)-TAMRA), mean ± SEM, n=3) [M⁻¹ s⁻¹] | koff ([1]; association kinetics, 25 °C, y-intercept of kobs vs probe concentration, mean ± SEM, n=3) [s⁻¹] | half-life ([1]; from association kinetics) [s] | Ki ([2]; G protein coupled state (30 μM sumo-miniGs), 3 nM AM2/IMD(8-47)-TAMRA probe, 8 h, read-out: Ki + mGs) [nM] | Ki ([2]; G protein uncoupled state (50 μM GTPγS), 30 nM AM2/IMD(8-47)-TAMRA probe, 8 h, read-out: Ki + GTPγS) [nM] | koff [3] [s⁻¹] | kon [3] [M⁻¹ s⁻¹] | Residence time (1/koff) ([3]; from competition kinetics) | t1/2 (ln 2/koff) ([3]; from competition kinetics) [min] | Kd ([3]; from competition kinetics) [nM] | Ki [2, 4] [nM] | residence time ([3]; from competition kinetics) [min]
CC(C)[C@H](NC(=O)[C@H](CC(=O)O)NC(=O)[C@@H](NC(=O)[C@@H]1CCCN1C(=O)[C@@H](NC(=O)[C@@H](N)Cc1ccccc1)C(C)C)[C@@H](C)O)C(=O)NCC(=O)N1CCC[C@H]1C(=O)N[C@@H](CCCCNC(=O)c1ccc2c(c1)C(=O)OC21c2ccc(N(C)C)cc2Oc2cc(N(C)C)ccc21)C(=O)N[C@@H](CO)C(=O)N[C@@H](Cc1ccc(O)cc1)C(N)=O [CGRP(27-37)*-TAMRA, αCGRP(27-37) N31D/S34P/K35-TAMRA/A36S/F37Y] (H-FVPTDVGPK(5TAMRA)SY-NH2; N-terminus assumed) | 2.75e+06 | 0.0635 | 11 |  |  |  |  |  |  |  |  | 
CC(C)C[C@H](NC(=O)CNC(=O)[C@H](C)NC(=O)[C@H](CC(C)C)NC(=O)[C@H](CCCNC(=N)N)NC(=O)[C@H](Cc1c[nH]cn1)NC(=O)[C@@H](NC(=O)[C@@H](NC(=O)[C@@H]1CSSC[C@H](NC(=O)[C@H](C)N)C(=O)N[C@@H](CC(=O)O)C(=O)N[C@@H]([C@@H](C)O)C(=O)N[C@@H](C)C(=O)N[C@@H]([C@@H](C)O)C(=O)N1)C(C)C)[C@@H](C)O)C(=O)N[C@@H](CC(C)C)C(=O)N[C@@H](CO)C(=O)N[C@@H](CCCNC(=N)N)C(=O)N[C@@H](CO)C(=O)NCC(=O)NCC(=O)N[C@H](C(=O)N[C@H](C(=O)N[C@@H](CCCCN)C(=O)N[C@@H](CC(N)=O)C(=O)N[C@@H](CC(N)=O)C(=O)N[C@@H](Cc1ccccc1)C(=O)N[C@H](C(=O)N1CCC[C@H]1C(=O)N[C@H](C(=O)N[C@@H](CC(=O)O)C(=O)N[C@H](C(=O)NCC(=O)N1CCC[C@H]1C(=O)N[C@@H](Cc1c[nH]c2ccccc12)C(=O)N[C@@H](CO)C(=O)N[C@@H](Cc1ccccc1)C(N)=O)C(C)C)[C@@H](C)O)C(C)C)C(C)C)C(C)C [ssCGRP(1-37)] (H-ACDTATCVTHRLAGLLSRSGGVVKNNFVPTDVGPWSF-NH2; disulfide 2-7) |  |  |  | 0.19 ± 0.01 | 0.248 ± 0.008 |  |  |  |  |  |  | 
FVPTDVGPWSF-NH2 [ssCGRP(27-37)] |  |  |  |  |  | 0.00222 | 3.22e+06 | 7.57 ± 0.27 min and ~8 min | 5.24 ± 0.18 | 0.73 | 0.527 ± 0.039 | 
FVPTNVGSKAF-NH2 [CGRP(27-37), reference compound] |  |  |  |  |  | 0.203 | 195000 | 0.087 ± 0.015 min | 0.06 ± 0.01 | 1040 | 1050 | ~0.0833
